The results in this text go back to BindingDB's records for doi:10.7270/Q2N014W6 (Burnham Center for Chemical Genomics, 2008).

In this assay the target is T1, Bcl-2-related protein A1 (Mus musculus, UniProt Q07440).
T1 sequence (Q07440 whole entry): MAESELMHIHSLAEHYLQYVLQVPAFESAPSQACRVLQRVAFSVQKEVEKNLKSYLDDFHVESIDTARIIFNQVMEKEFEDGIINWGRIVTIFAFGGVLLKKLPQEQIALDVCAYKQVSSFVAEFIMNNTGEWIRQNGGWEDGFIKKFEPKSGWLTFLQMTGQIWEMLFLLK
The assay can be described thus: Bfl-1 inhibitors, primary screen, biochemical, fluorescence polarization, FITC-Bid, mouse (AID 432). As to conditions: pH 7; 23 °C.

Structures are written as SMILES.

In general, IC50 refers to the midpoint of a concentration-inhibition curve. The low end stands for greater potency in that assay, the high end for weaker potency in that assay. `c1ccc(-c2ccc(C3=Nc4ncnn4C(c4ccco4)C3)cc2)cc1` (stereo not drawn): the IC50 is > 100 µM.

On to `O=C1C(=O)N(c2ncccn2)C(c2cccc(Cl)c2)C1C(=O)c1ccco1` (stereo not drawn) [2-(3-chlorophenyl)-3-(furan-2-carbonyl)-4-hydroxy-1-pyrimidin-2-yl-2H-pyrrol-5-one], for which the IC50 was > 100 µM. Regarding `OCCCc1nc2n(n1)C(c1cccs1)CC(c1ccccc1)=N2` (stereo not drawn) [3-(5-phenyl-7-thiophen-2-yl-1,7-dihydro-[1,2,4]triazolo[1,5-a]pyrimidin-2-yl)-1-propanol], the IC50 was > 100 µM. `COc1ccc(N2C(=O)C(=Nc3c(C)n(C)n(-c4ccccc4)c3=O)C(Cl)C2=O)cc1` (stereo not drawn) [3-chloranyl-4-[(1,5-dimethyl-3-oxidanylidene-2-phenyl-pyrazol-4-yl)amino]-1-(4-methoxyphenyl)pyrrole-2,5-dione]: the IC50 was > 100 µM. The figure for `CCCN1CCC2=C(C#N)C(=N)C(C#N)(C#N)C(c3cccc(OC)c3OC)C2C1` (stereo not drawn) [6-amino-8-(2,3-dimethoxyphenyl)-2-propyl-1,3,8,8a-tetrahydroisoquinoline-5,7,7-tricarbonitrile] is > 100 µM; for `CN1CCC2=C(C#N)C(=N)C(C#N)(C#N)C(c3cccc(Cl)c3Cl)C2C1` (stereo not drawn) [6-azanyl-8-[2,3-bis(chloranyl)phenyl]-2-methyl-1,3,8,8a-tetrahydroisoquinoline-5,7,7-tricarbonitrile] it is > 100 µM; for `CN1CCC2=C(C#N)C(=N)C(C#N)(C#N)[C@H](c3cccc(Cl)c3)C2C1` (stereo partly drawn) [(8S)-6-amino-8-(3-chlorophenyl)-2-methyl-1,3,8,8a-tetrahydroisoquinoline-5,7,7-tricarbonitrile] it is > 100 µM. For `Cc1ccc(C2C3CN(C(C)C)CCC3=C(C#N)C(=N)C2(C#N)C#N)cc1` (stereo not drawn) [SMR000034220], the IC50 is > 100 µM.
